Assay results taken from patent US9150579B2, “Selective PI3K delta inhibitors” (Rhizen Pharmaceuticals SA, priority 2012, dated 2015).

Tests used:
[1] = Metabolic stability in rat liver microsomes; type: in vitro ADME; details: 1 μM test item, 60 minutes, NADPH
Protocol: (§1) Metabolic stability studies were conducted using mouse, rat, and human liver microsomes. The protocol for the studies with mouse, rat, and human liver microsomes (all from BD Gentest, USA) is provided below. In brief, 0.4 mg protein was preincubated with 2 mM NADPH (cofactor) in phosphate buffer (pH˜7.4) for 15 min at 37° C. and then added with 1 μM test item and incubated further for 60 minutes in triplicate. The reaction mixture was terminated with methanol containing an internal standard and centrifuged further to analyze the test item remaining in the supernatant by LC-MS/MS. The percent parent compound remaining was calculated in comparison with similar samples terminated at 0 minutes.

PI3Kα = PI3Kα (Mus musculus (Mouse), UniProt P42337); details: Cell-based; versus PI3Kδ
Protocol: (§2) Compound specificity towards PI3Kδ was determined in an IgM-induced B cell proliferation assay. B-cells isolated from blood of healthy subjects were seeded in a 96-well tissue culture plate and incubated with desired concentrations of compound for 30 min. Cells were stimulated with 5 μg/ml purified goat anti-human IgM. Growth was assessed using the 3-[4,5-dimethylthiazol-2-yl]-2,5-diphenyltetrazolium bromide (MTT) dye reduction test. For selectivity against PI3K α, β, or γ isoforms, NIH-3T3 or RAW macrophages were seeded in a 6-well tissue culture plate and incubated overnight. Complete medium was replaced with serum-free media the following day and compound at the desired concentrations were added. After 15 minutes, 20 ng/ml PDGF, 5 μM LPA, or 50 ng/ml c5a was added and incubated for an additional 10 minutes. Cells were lysed and AKT phosphorylation was determined by Western Blotting. Intensity of the bands was determined using ImageJ 1.42q (NIH, USA) and normalized to Actin (loading control).

PI3Kβ = PI3Kβ (Mus musculus (Mouse), UniProt Q8BTI9); details: Cell-based; versus PI3Kδ
Protocol: as §2

PI3Kγ = PI3Kγ (Mus musculus (Mouse), UniProt Q9JHG7); details: Cell-based; versus PI3Kδ
Sequence of PI3Kγ (Q9JHG7 whole entry): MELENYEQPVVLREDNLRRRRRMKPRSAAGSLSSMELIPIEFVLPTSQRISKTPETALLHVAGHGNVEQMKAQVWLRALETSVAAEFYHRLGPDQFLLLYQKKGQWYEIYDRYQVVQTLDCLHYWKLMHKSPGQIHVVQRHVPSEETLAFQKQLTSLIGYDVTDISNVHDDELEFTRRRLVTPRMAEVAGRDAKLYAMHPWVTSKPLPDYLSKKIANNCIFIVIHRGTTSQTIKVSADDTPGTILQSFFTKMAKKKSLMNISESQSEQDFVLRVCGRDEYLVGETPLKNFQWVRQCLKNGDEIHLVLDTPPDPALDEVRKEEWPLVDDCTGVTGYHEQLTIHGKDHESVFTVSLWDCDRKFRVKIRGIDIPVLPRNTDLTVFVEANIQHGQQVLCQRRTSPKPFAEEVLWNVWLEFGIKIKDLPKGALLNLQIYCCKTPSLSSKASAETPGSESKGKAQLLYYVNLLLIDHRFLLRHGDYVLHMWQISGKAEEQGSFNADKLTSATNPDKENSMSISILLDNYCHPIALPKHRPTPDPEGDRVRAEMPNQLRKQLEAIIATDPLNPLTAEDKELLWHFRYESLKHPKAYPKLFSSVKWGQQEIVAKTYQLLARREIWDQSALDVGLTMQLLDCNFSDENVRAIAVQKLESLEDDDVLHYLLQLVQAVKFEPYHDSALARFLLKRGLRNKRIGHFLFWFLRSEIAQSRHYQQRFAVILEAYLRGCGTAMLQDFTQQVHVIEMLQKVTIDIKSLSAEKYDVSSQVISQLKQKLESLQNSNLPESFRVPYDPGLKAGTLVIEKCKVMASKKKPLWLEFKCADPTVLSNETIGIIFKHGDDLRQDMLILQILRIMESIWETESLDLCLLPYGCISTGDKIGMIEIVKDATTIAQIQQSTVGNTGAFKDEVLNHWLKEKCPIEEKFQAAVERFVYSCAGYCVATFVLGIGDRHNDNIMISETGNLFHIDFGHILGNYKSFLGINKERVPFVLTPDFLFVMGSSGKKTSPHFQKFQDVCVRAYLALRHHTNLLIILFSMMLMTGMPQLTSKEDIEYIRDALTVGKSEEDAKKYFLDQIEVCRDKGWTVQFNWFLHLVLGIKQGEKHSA
Protocol: as §2

[2] = test system: AML patient bone marrow leukemic cells; experiment: Assay 6-I: Flow cytometry analysis of apoptotic induction in AML patient bone marrow leukemic cells; type: cell-based, human
Protocol: 6-I: Flow cytometry analysis of apoptotic induction in AML patient bone marrow leukemic cells upon compound treatment using Annexin V and 7-AAD staining: Mononuclear cells were extracted by the Ficoll method and seeded in plates. The cells were treated by different compounds for 48 hrs before they were analyzed by flow cytometry. After washing with PBS, 1×10^5 cells were stained by Annexin V-APC and 7-AAD. Annexin V positive staining measures total apoptotic cells, including early and late apoptotic cells. For Annexin V positive cells, 7-AAD negative signal reflects early apoptotic cells.

[3] = Metabolic stability in human liver microsomes; type: in vitro ADME
Protocol: as §1

[4] = test system: pAKT in AML patient bone marrow leukemic cells; experiment: Assay 6-II: pAKT analysis of AML patient bone marrow sample (pAKT ELISA); type: cell-based, human
Protocol: 6-II: pAKT analysis of AML patient bone marrow sample using pAKT ELISA kit: Mononuclear cells were extracted by the Ficoll method and seeded in plates. The cells were treated by different compounds for 48 hrs before they were analyzed by pAKT ELISA kit following the product protocol. Briefly, 1×10^6 cells were transferred into an ELISA kit well and lyzed with 10 μL 5× Cell Lysis Mix (phospho-AKT 1/2/3 (Ser473) InstantOne™ ELISA Kit, eBioscience, 85-86042). The cells were then incubated with 50 μl antibody cocktail for 1 hr at room temp. on a microplate shaker (˜300 rpm). After incubating with detection reagent, the result was measured using a SpectraMAX Plus microplate spectrophotometer set at 450 nm.

PI3K γ = PI3K γ (Homo sapiens (Human), UniProt P48736); experiment: Assay 1: Fluorescent (HTRF) determination of PI3K enzyme activity, gamma; type: biochemical
Sequence of PI3K γ (P48736 whole entry, canonical isoform): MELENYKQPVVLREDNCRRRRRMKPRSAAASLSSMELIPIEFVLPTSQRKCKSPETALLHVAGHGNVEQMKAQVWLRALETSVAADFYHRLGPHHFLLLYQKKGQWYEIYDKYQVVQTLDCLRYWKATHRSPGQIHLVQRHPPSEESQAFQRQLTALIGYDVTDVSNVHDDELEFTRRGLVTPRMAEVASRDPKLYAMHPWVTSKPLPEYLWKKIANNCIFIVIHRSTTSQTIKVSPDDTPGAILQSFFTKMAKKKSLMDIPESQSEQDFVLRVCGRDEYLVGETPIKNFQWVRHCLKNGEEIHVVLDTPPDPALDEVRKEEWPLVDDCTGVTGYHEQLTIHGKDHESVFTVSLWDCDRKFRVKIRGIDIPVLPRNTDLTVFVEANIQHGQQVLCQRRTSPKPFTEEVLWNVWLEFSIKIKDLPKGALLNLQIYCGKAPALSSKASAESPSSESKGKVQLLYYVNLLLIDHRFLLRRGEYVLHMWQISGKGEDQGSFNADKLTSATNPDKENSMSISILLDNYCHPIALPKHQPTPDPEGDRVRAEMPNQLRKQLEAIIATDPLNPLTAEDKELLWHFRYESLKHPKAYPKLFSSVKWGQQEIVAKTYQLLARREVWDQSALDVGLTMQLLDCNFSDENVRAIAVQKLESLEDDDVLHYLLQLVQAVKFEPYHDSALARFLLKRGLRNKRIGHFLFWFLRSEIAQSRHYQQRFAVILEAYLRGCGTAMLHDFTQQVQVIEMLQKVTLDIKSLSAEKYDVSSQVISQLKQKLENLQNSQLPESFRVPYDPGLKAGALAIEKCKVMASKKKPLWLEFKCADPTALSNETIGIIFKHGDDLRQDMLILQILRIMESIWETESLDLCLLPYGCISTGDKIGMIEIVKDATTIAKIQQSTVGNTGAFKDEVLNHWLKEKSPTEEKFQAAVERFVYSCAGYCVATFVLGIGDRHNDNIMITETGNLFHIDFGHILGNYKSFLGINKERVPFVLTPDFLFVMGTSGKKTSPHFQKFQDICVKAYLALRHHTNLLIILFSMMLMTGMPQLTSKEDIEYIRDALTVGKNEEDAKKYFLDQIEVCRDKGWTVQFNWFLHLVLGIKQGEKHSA
Protocol: (§3) The homogenous time resolved fluorescence (HTRF) assay allows detection of 3,4,5-triphosphate (PIP3) formed as a result of phosphorylation of phosphotidylinositol 4,5-biphosphate (PIP2) by PI3K isoforms such as α, β, γ or δ.
(§4) PI3K isoform activity for α, β, γ or δ was determined using a PI3K human HTRF™ Assay Kit (Millipore, Billerica, Mass.) with modifications. All incubations were carried out at room temperature. […] After the initial incubation, 5 μl/well of 400 μM ATP was added and incubated for an additional 30 minutes. Reaction was terminated by adding 5 μl/well stop solution (Millipore, Billerica, Mass.). Five microliters of detection mix (Millipore, Billerica, Mass.) were then added to each well and was incubated for 6-18 h in the dark.

PI3K β = PI3K β (Homo sapiens (Human), UniProt P42338); experiment: Assay 1: Fluorescent (HTRF) determination of PI3K enzyme activity, beta; type: biochemical
Sequence of PI3K β (P42338 whole entry): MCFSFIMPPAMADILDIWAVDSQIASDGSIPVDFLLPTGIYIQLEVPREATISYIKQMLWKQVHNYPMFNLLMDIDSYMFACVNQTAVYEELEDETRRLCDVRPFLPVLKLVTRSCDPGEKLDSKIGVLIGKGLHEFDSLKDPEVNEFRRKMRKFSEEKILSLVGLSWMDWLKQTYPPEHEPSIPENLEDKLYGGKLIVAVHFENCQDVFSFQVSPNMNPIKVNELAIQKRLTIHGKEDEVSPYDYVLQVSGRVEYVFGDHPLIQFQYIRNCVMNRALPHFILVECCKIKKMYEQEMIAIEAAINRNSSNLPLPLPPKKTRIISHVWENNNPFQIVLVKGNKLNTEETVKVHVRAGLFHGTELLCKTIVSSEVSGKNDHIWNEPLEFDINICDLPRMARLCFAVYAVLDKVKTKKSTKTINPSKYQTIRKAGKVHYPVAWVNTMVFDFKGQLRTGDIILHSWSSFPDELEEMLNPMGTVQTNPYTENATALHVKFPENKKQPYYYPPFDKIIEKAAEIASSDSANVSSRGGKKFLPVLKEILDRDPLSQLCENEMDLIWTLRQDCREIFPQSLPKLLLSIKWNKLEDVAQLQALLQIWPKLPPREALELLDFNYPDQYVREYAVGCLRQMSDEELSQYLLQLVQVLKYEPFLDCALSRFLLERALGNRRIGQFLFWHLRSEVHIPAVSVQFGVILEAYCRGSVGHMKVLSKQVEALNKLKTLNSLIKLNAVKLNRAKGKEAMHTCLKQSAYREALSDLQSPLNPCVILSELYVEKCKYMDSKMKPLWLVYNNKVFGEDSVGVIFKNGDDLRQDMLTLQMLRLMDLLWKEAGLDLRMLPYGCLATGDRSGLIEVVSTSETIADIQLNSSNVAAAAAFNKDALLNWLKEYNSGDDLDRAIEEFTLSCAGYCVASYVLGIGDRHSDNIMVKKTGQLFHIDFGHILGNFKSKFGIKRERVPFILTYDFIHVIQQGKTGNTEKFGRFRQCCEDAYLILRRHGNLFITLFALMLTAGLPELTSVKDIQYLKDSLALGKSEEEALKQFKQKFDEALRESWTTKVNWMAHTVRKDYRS
Sequence of PI3K β (P27986 whole entry partner): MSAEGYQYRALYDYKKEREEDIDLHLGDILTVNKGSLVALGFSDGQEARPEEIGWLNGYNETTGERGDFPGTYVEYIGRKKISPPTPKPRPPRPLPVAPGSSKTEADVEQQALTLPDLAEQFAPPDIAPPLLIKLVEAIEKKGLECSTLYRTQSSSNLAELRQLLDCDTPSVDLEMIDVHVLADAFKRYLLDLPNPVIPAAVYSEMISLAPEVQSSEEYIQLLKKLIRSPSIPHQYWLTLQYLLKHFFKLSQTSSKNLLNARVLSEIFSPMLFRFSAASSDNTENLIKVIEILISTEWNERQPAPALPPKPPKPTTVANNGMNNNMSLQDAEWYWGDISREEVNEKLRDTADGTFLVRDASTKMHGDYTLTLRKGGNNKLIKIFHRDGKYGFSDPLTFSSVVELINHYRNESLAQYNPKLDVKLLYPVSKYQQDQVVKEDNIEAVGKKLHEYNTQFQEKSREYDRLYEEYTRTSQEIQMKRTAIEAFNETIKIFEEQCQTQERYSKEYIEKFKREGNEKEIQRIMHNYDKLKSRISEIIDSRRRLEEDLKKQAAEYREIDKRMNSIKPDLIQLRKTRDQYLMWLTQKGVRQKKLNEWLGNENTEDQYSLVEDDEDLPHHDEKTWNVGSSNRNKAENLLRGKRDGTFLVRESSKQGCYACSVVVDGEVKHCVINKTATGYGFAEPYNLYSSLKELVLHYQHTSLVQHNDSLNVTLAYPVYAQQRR
Protocol: as §3, §4

Metabolic stability in liver microsomes, Rat (percent parent compound remaining) [1]: 35.8%
Fold-Selectivity PI3Kα (PI3Kα): >1000 fold
Fold-Selectivity PI3Kβ (PI3Kβ): >30 fold
Fold-Selectivity PI3Kγ (PI3Kγ): >8 fold
Metabolic stability in liver microsomes, Human (percent parent compound remaining) ([3]; 1 μM test item, 60 minutes, NADPH): 54.5%
fold greater metabolic stability in human liver microsomes than its enantiomer ([3]; A1 vs A2, B1 vs B2): ~5 fold
inhibition at 1 µM (PI3K γ): 80.6%
Fold-Selectivity PI3Kγ (PI3K γ; Enzyme, versus PI3Kδ): >9 fold
inhibition at 1 µM (PI3K β): 47.9%
Fold-Selectivity PI3Kβ (PI3K β; Enzyme, versus PI3Kδ): >54 fold
Compound: CC(C)Oc1ccc(-c2nn([C@@H](C)c3oc4ccccc4c(=O)c3-c3cccc(F)c3)c3ncnc(N)c23)cc1F [Compound A1, (S)-2-(1-(4-amino-3-(3-fluoro-4-isopropoxyphenyl)-1H-pyrazolo[3,4-d]pyrimidin-1-yl)ethyl)-3-(3-fluorophenyl)-4H-chromen-4-one]
number of apoptotic cells [2]: concomitant increase in the number of apoptotic cells
fold increase in apoptosis ([2]; 3 μM, 48 hrs): ~1.5 fold increase in appotosis @ 3 μM and
AKT phosphorylation (dose dependence) [4]: dose dependent reduction
inhibition at 0.3 µM ([4]; Homo sapiens, Bone marrow cell, 0.3 μM, 48 hrs): > 50%
